Laboratory results: patent US9399645B2, “Inhibitors of HIV replication” (Boehringer Ingelheim International GmbH, priority 2011, dated 2016)

Tests used:
[1] = Caco-2 Permeability Assay; format: in vitro ADME; conditions: human; for Papp A→B at 10 μM: apparent permeability A to B, compound at 10 μM, apical buffer pH 6.0, basolateral buffer pH 7.4, read-out: Papp (cm/sec, *10^−6)
Source text: Caco-2 Permeability Assay Caco-2 cells are purchased from Cell Culture Services as frozen instant cells at a concentration of 1*10^7 cells/vial. DMEM+glutamax-I culture media is purchased from Gibco (10569). Fetal bovine serum (FBS) is purchased from HyClone (SH30396.03). Pennicilin/Streptomycin antibiotics are purchased from Gibco (15140). MEM non-essential amino acids are purchased from Gibco (11140). Hank's balanced salt solution (HBSS) is purchased from Gibco (14025). Bovine serum albumin (BSA) is purchased from Sigma-Aldrich (A7906). MES low moisture is purchased from Sigma-Aldrich (M3671). HEPES is purchased from Sigma-Aldrich (H3375). Dimethyl Sulfoxide (DMSO) is purchased from EMD (MX1457-6). Complete DMEM media is prepared by adding 1 L of FBS, 100 mL of pen/strep and 110 mL of MEM non essential amino acids to 10 L of DMEM+glutamax-I. […] Caco-2 cells are seeded on HTS transwell 24-well plates purchased from Corning (3397). These polycarbonate membrane plates have a diameter of […] and pore size of 0.4 μm. The Caco-2 cells vial is thawed in a 37° C. water bath until only a small ice pellet is left. The vial is then transferred to the laminar flow hood and its exterior is extensively washed with 70% ethanol. The total content of the vial (2 mL) is transferred into a 50 mL tube containing 38 mL of complete DMEM. […] The seeding is done by the Hamilton star robotic station which is controlled with the Venus program. Each well will receive 600 μL of complete DMEM on its basolateral side and 200 μL of cells on its apical side. Each well receives 50 000 cells. The 24-well plates are then returned to an automated Liconic STX110 incubator set at 37° C., 5% CO2 and 100% humidity. The culture media for the cells is changed every two days except on weekends. These cells are maintained for a period of two weeks prior to the running of the permeability assay. Permeability assays are usually performed between day 15 and 18 after the initial seeding. […] Controls for the assay are mannitol for tight junction determination and Digoxin for efflux transporter (p-glycoprotein) expression. On the day of the assay, each compound is diluted to 10 μM in the buffer (apical for A to B). 6 μl of the 5 mM DMSO stock is added to 3 mL of the buffer in a 24-well 10 mL deep plate covered with a lid. The plate containing all the diluted compounds is spun for 10 min at 3000 rpm in a Rotanta 46 RSC centrifuge from Hettich to remove unsoluble compound. This dilution is used to add at the start of the incubation. Each compound is tested in duplicate. On the day of the assay, the culture media of the 24-well plate is removed and replaced with warm HBSS. The HBSS is then also removed and the Apical and Basolatral buffer are added to their respective side of the transwells. These steps are performed by the Hamilton Star robotic station. The plate is then placed in a 37° C. incubator and is left to equilibrate for 30 min. After 30 min of incubation a background sample (25 μL from each well) is taken from the receiver side (Basolateral for A to B), and replenished with warm buffer. These samples and all others afterwards are kept in a 96-well 1 mL plate. To start the assay, the donor compartment (apical for A to B) is emptied and replaced with new buffer containing the compound at 10 μM. Once the compounds are added, the plate is returned to the 37° C. incubator and the timer is started. In order to determine how much compound is actually added to each well, a 50 μL sample is taken from each compound dilution, this sample is refered to as the load. These steps and the following are performed by the Tecan Freedom EVO robotic station controlled via the Gemini software. For A-to-B Assay: Samples (190 μL) are taken from each basolateral (receiver) chamber at time points 0, 60, 120 and 180 min or at time points 0, 30, 60 and 90 min. From the 190 μL taken, 50 μL is transferred to the receiving plate and 140 μL is discarded.

HIV-1 = assay: C8166 HIV-1 Luciferase Assay (EC50); format: cell-based; conditions: Human immunodeficiency virus 1, C8166, 72 h
Method: C8166 HIV-1 Luciferase Assay (Ec50)
The assay used to measure inhibition of HIV replication is as described in WO 2004/050643, pages 73-75, incorporated herein by reference, with the following modifications:
Serial dilutions of HIV-1 inhibitors are prepared in complete media from DMSO stock solutions. Eleven serial dilutions of desired concentration are prepared in a 1 mL deep well titer plate (96 wells). The 12th well contains complete media with no inhibitor and serves as the positive control. All samples contain the same concentration of DMSO (<0.1% DMSO). Inhibitor is added, to triplicate wells, of a 96 well tissue culture treated clear view black microtiter plate (Corning Costar catalogue #3904). The total volume per well is 200 μL of media containing the cells and inhibitor. The last row is reserved for uninfected C8166 LTRIuc cells to serve as the background blank control and the first row is media alone.
Count C8166 LTRIuc cells and place in a minimal volume of complete RPMI 1640 in a tissue culture flask (ex. 30×10^6 cells in 10 mL media/25 cm^2 flask). Infect cells with HIV-1 at a moi of 0.005. Incubate cells for 1.5 h at 37° C. on a rotating rack in a 5% CO2 incubator. Resuspend cells in complete RPMI to give a final concentration of 25,000-cells/well. Add cells to wells of 96 well microtiter plate containing inhibitors. Add 25,000 uninfected C8166-LTRIuc cells/well in 200 μL complete RPMI to last row for background control. Incubate cells at 37° C. in 5% CO2 incubator for 3 days.
50 μL Steady Glo (luciferase substrate T112=5 hours Promega catalogue # E2520) is added to each well of the 96 well plate. The relative light units (RLU) of luciferase are determined using a luminescence plate reader. The calculated % inhibition values are used to determine EC50, slope factor (n) and maximum inhibition (Imax).

SMILES	Papp A→B at 10 μM [1]	EC50 (HIV-1)	Papp A→B [1]
CC[C@H]1C[C@@H](n2c(=O)nc(-c3cnn(C)c3)c3oc4cc(F)c(-c5cnn(C)c5)cc4c32)CCO1 [Compound 1042]	23.4 ×10⁻⁶ cm/s	6.9 nM	
CC[C@H]1C[C@@H](n2c(=O)nc(-c3cnn(C)c3)c3oc4cc(F)c(-c5cnc(C)o5)cc4c32)CCO1 [Compound 1044]	12.4 ×10⁻⁶ cm/s	22 nM	
CC[C@H]1C[C@@H](n2c(=O)nc(-c3cnn(C)c3)c3oc4cc(F)c(-c5ccc(CO)nc5)cc4c32)CCO1 [Compound 1045]	9.4 ×10⁻⁶ cm/s	17.3 nM	
CC[C@H]1C[C@@H](n2c(=O)nc(-c3cnn(C)c3)c3oc4cc(F)c(-c5ccc(C(C)O)nc5)cc4c32)CCO1 (stereo partly drawn) [Compound 1046]	17.9 ×10⁻⁶ cm/s	110 nM	
CC[C@H]1C[C@@H](n2c(=O)nc(-c3cnn(C)c3)c3oc4cc(Cl)c(-c5cnn(C)c5)cc4c32)CCO1 [Compound 1048]	22.1 ×10⁻⁶ cm/s	6 nM	
CC[C@H]1C[C@@H](n2c(=O)nc(-c3cnn(C)c3)c3oc4cc(C)c(-c5cnn(C)c5)cc4c32)CCO1 [Compound 1050]	19.1 ×10⁻⁶ cm/s	7.7 nM	
CC[C@H]1C[C@@H](n2c(=O)nc(-c3cnn(C)c3)c3oc4cc(C#N)c(-c5cccnc5)cc4c32)CCO1 [Compound 1051]	15.4 ×10⁻⁶ cm/s	220 nM	
C[C@@H]1C[C@H](n2c(=O)nc(-c3cnn(C)c3)c3oc4cc(C#N)c(-c5cnn(C)c5)cc4c32)C[C@H](C)O1 [Compound 1052]	18.2 ×10⁻⁶ cm/s	150 nM	
CC[C@H]1C[C@@H](n2c(=O)nc(-c3cnn(C)c3)c3oc4cc(C#N)c(-c5cnn(C)c5)cc4c32)C[C@@H](C)O1 [Compound 1053]	22.2 ×10⁻⁶ cm/s	43 nM	
CC[C@H]1C[C@@H](n2c(=O)nc(-c3cnn(C)c3)c3oc4cc(C#N)c(-c5ccn(C)n5)cc4c32)CCO1 [Compound 1054]	20.3 ×10⁻⁶ cm/s	32.2 nM	
CC[C@H]1C[C@@H](n2c(=O)nc(-c3cnn(C)c3)c3oc4cc(OC)c(-c5cnn(C)c5)cc4c32)CCO1 [Compound 1055]	8.42 ×10⁻⁶ cm/s	3.6 nM	
COc1cc2oc3c(-c4cnn(C)c4)nc(=O)n(CC[C@@H]4CCCO4)c3c2cc1-c1cnn(C)c1 [Compound 1056]	6.7 ×10⁻⁶ cm/s	8.3 nM	
CC[C@H]1C[C@@H](n2c(=O)nc(-c3cnn(C)c3)c3oc4c(OC)cc(-c5cnn(C)c5)cc4c32)CCO1 [Compound 1057]	14.9 ×10⁻⁶ cm/s	2.2 nM	
CC[C@H]1C[C@@H](n2c(=O)nc(-c3cnn(C)c3)c3oc4c(C)cc(-c5cnn(C)c5)cc4c32)CCO1 [Compound 1058]	16.6 ×10⁻⁶ cm/s	0.6 nM	
CC[C@H]1C[C@@H](n2c(=O)nc(-c3cnn(C)c3)c3oc4c(C#N)c(C)c(-c5cnn(C)c5)cc4c32)CCO1 [Compound 1060]	13 ×10⁻⁶ cm/s	140 nM	
CC[C@H]1C[C@@H](n2c(=O)nc(-c3cnn(C)c3)c3oc4ncc(-c5cnn(C)c5)cc4c32)CCO1 [Compound 1061]	9.3 ×10⁻⁶ cm/s	20.3 nM	
CNc1ccc(-c2nc(=O)n(CCC3CCCO3)c3c2oc2ncc(-c4cnco4)cc23)cn1 (stereo not drawn) [Compound 1066]	8.3 ×10⁻⁶ cm/s	110 nM	

SMILES	Papp A→B at 10 μM [1]	EC50 (HIV-1)	Papp A→B [1]
CCn1cc(-c2cnc3oc4c(-c5ccc(NC)nc5)nc(=O)n(CCC5CCCCO5)c4c3c2)cn1 (stereo not drawn) [Compound 1067]	5.3 ×10⁻⁶ cm/s	40 nM	
CNc1ccc(-c2nc(=O)n(CCC3CCCO3)c3c2oc2ncc(-c4cnn(CC5CC5)c4)cc23)cn1 (stereo not drawn) [Compound 1068]	8.1 ×10⁻⁶ cm/s	78 nM	
CC[C@H]1C[C@@H](n2c(=O)nc(-c3cnn(CC)c3)c3oc4ncc(-c5cnn(CC)c5)cc4c32)CCO1 [Compound 1072]	21.4 ×10⁻⁶ cm/s	110 nM	
Cn1cc(-c2cnc3oc4c(-c5cnn(C)c5)nc(=O)n(CCC5CCCCO5)c4c3c2)cn1 (stereo not drawn) [Compound 1074]	11 ×10⁻⁶ cm/s	90 nM	
CC[C@H]1C[C@@H](n2c(=O)nc(-c3cnn(C)c3)c3oc4cnc(-c5cnn(C)c5)cc4c32)CCO1 [Compound 1076]		5.9 nM	17.9 ×10⁻⁶ cm/s
CC[C@H]1C[C@@H](n2c(=O)nc(-c3ccc(NC)nc3)c3oc4cnc(-c5cnn(C)c5)cc4c32)CCO1 [Compound 1077]	14.7 ×10⁻⁶ cm/s	6 nM	
CC[C@H]1C[C@@H](n2c(=O)nc(-c3cnn(C)c3)c3oc4nc(C)c(-c5cnco5)cc4c32)CCO1 [Compound 1080]	12.4 ×10⁻⁶ cm/s	120 nM	
CC[C@H]1C[C@@H](n2c(=O)nc(-c3cnn(C)c3)c3oc4c(C)nc(-c5cnn(C)c5)cc4c32)CCO1 [Compound 1082]	18.9 ×10⁻⁶ cm/s	3.3 nM	
CC[C@H]1C[C@@H](n2c(=O)nc(-c3cnn(C)c3)c3oc4ncc(-c5cccnc5)cc4c32)CCO1 [Compound 1083]	12.5 ×10⁻⁶ cm/s	41 nM	
C[C@@H]1C[C@H](n2c(=O)nc(-c3cnn(C)c3)c3oc4cnc(-c5cnn(C)c5)cc4c32)C[C@H](C)O1 [Compound 1084]	20.5 ×10⁻⁶ cm/s	120 nM	
CC[C@H]1C[C@@H](n2c(=O)nc(-c3cnn(C)c3)c3oc4cnc(-c5cnn(CCOC)c5)cc4c32)CCO1 [Compound 1085]	19.2 ×10⁻⁶ cm/s	120 nM	
CC[C@@H]1C[C@H](n2c(=O)nc(-c3cnn(C)c3)c3oc4cnc(-c5cccnc5)cc4c32)CCO1 [Compound 1086]	22.5 ×10⁻⁶ cm/s	18 nM	
CC[C@H]1C[C@@H](n2c(=O)nc(-c3cnn(C)c3)c3oc4cnc(-c5cnn(C)c5)cc4c32)CCCO1 [Compound 1087]	23.1 ×10⁻⁶ cm/s	9.7 nM	
CC[C@H]1C[C@@H](n2c(=O)nc(-c3cnn(C)c3)c3oc4cnc(-c5cnc(C)o5)cc4c32)CCO1 [Compound 1088]	22.9 ×10⁻⁶ cm/s	36.2 nM	
CC[C@H]1C[C@@H](n2c(=O)nc(-c3cnn(C)c3)c3oc4cnc(-c5cnco5)cc4c32)CCO1 [Compound 1089]	18.6 ×10⁻⁶ cm/s	30 nM	
CC[C@H]1C[C@@H](n2c(=O)nc(-c3cnn(C)c3)c3oc4cnc(-n5ccnc5)cc4c32)CCO1 [Compound 1090]	8.7 ×10⁻⁶ cm/s	160 nM	
